Earlier results as cited in patent EP1988398B1, “Immunoassay for tramadol and its major metabolites” (Randox Laboratories Ltd., priority 2007, dated 2008).
Structures can show the parent of a compound that is named as a salt.

[1] = oral administration of a single 100 mg dose

Row | Compound | abundance of N-demethyltramadol relative to O-demethyltramadol (normal tramadol dosage levels) | plasma concentration of tramadol peaks [1] | time of peak plasma concentration [1] | Urinary excretion of the dose as metabolites (oral, single 100 mg dose) | Urinary excretion of the dose as the unchanged drug (oral, single 100 mg dose)
1 | CNC[C@@H]1CCCC[C@@]1(O)c1cccc(OC)c1 (racemic) [N-demethyltramadol, (±)-cis-2-[(methylamino)methyl]-1-(3-methoxyphenyl)cyclohexanol] | 1.5-3 times | – | – | – | –
2 | COc1cccc(C2(O)CCCCC2CN(C)C)c1 (racemic) [Tramadol, (±)-cis-2-[(dimethylamino)methyl]-1-(3-methoxyphenyl)cyclohexanol hydrochloride] | – | approximately 600 ng/ml | 2 to 3 h | 60% | 30%
